Measurements published in ChEMBL document CHEMBL1126364, “A new class of leukotriene biosynthesis inhibitors: The discovery of MK0591” (Bioorg Med Chem Lett, 1992).
pIC50: −log10 of the molar value.

Columns and labels:
[1] = target: T1, Arachidonate 5-lipoxygenase-activating protein (Homo sapiens, UniProt P20292); experiment: The compound was tested for the inhibition of binding of [125I]- L- 691,831 binding to 5-lipoxygenase activating protein (FLAP)
T1 sequence (P20292 whole entry): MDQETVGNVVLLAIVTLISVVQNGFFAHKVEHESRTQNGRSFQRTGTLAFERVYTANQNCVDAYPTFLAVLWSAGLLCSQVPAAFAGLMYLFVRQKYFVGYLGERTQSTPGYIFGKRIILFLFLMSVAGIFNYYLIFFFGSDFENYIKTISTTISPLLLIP

Homo sapiens [2] = organism: Homo sapiens; experiment: Leukotriene synthesis inhibition activity in the Human PMN assay; format: functional, organism-based
Homo sapiens [3] = organism: Homo sapiens; experiment: Leukotriene synthesis inhibition activity in the Human whole blood assay; format: functional, organism-based
[4] = target: T1, Arachidonate 5-lipoxygenase-activating protein; experiment: The compound was tested for the inhibition of binding of [125I]- L- 691,831 binding to 5-lipoxygenase activating protein

Structure (SMILES)	pIC50 [1]	pIC50 (Homo sapiens [2]; Homo sapiens)	pIC50 (Homo sapiens [3])	pIC50 (Homo sapiens [2])	further results
O=C(O)CSC(CCCc1ccccc1)(CCc1ccccc1)c1ccc(OCc2ccc3ccccc3n2)cc1 (stereo not given)	8.40				
c1ccc(COCC(OCc2ccccc2)c2ccc(OCc3ccc4ccccc4n3)cc2)cc1 (stereo not given)		7.52			
CC(C)c1ccc2c(c1)c(SC(C)(C)C)c(CC(C)(C)C(=O)O)n2Cc1ccc(Cl)cc1	7.64	8.52	5.68		
O=C(O)CSC(CCCc1ccc(Cl)cc1)c1ccc(OCc2ccc3ccccc3n2)cc1 (single isomer, unassigned; (+))				8.30	
O=C(O)CSC(CCCc1ccc(Cl)cc1)c1ccc(OCc2ccc3ccccc3n2)cc1 (single isomer, unassigned; (-))				8.00	
O=C(O)CSC(CCCc1ccc(Cl)cc1)c1ccc(OCc2ccc3ccccc3n2)cc1 (stereo in doubt; 1)	6.91		< 4.66	7.70	

Further lines, with some results ahead:

pIC50 [1]	pIC50 (Homo sapiens [2]; Homo sapiens)	pIC50 (Homo sapiens [3])	pIC50 (Homo sapiens [2])	Structure (SMILES)	further results
	8.52			Cc1c(CC(C)(C)C(=O)O)n(Cc2ccc(Cl)cc2)c2ccc(OCc3ccc4ccccc4n3)cc12	
	6.06			COc1ccc2c(c1)c(C)c(CC(C)(C)C(=O)O)n2Cc1ccc(Cl)cc1	
	8.52	6.30		CC(C)(C)Sc1c(CC(C)(C)C(=O)O)n(Cc2ccc(Cl)cc2)c2ccc(OCc3ccc4ccccc4n3)cc12 [QUIFLAPON]	pIC50 [4]: 8.70
